Experimental data as given in patent US11396517B1, “Exo-aza spiro inhibitors of menin-MLL interaction” (Janssen Pharmaceutica NV, priority 2017, dated 2022).

Biological target: T1, menin (Homo sapiens, UniProt O00255, T541A)
T1 construct: Menin (a.a. 1-610-6×his tag)
T1 sequence (O00255 with tags, fused parts or gaps T541A): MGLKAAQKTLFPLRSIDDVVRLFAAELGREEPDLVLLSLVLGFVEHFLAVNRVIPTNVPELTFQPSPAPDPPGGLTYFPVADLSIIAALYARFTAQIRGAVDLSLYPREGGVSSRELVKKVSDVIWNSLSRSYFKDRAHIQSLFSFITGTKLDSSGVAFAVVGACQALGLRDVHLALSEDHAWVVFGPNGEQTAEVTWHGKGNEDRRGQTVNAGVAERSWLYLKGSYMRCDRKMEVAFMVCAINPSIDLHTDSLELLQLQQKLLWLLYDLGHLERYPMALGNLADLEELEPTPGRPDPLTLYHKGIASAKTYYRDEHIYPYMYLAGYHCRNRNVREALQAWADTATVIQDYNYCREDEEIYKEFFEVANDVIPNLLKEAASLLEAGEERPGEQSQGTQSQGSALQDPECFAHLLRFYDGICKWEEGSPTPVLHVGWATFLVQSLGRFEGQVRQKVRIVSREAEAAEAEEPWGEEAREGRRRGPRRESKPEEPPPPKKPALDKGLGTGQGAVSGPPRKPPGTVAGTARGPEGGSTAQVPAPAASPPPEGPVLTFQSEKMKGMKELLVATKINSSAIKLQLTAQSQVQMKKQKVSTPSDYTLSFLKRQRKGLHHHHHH
Test: Menin/MLL homogenous time-resolved fluorescence (HTRF) assay
Format: binding
Conditions: location 1; read-out: (2) location 1 Menin HTRF assay (IC50 (nM))
Experimental: 2) Menin/MLL Homogenous Time-Resolved Fluorescence (HTRF) Assay
To an untreated, white 384-well microtiter plate was added 40 nL 200× test compound in DMSO and 4 μL 2× terbium chelate-labeled menin (vide infra for preparation) in assay buffer (40 mM Tris HCl, pH 7.5, 50 mM NaCl, 1 mM DTT and 0.05% Pluronic F-127). After incubation of test compound and terbium chelate-labeled menin for 5 min at ambient temperature, 4 μL 2× FITC-MBM1 peptide (FITC-β-alanine-[…]-NH2 (SEQ ID NO: 23)) in assay buffer was added, the microtiter plate centrifuged at 1000 rpm for 1 min and the assay mixtures incubated for 15 min at ambient temperature. The relative amount of menin.FITC-MBM1 complex present in an assay mixture is determined by measuring the homogenous time-resolved fluorescence (HTRF) of the terbium/FITC donor/acceptor fluorphore pair using a BMG Pherastar plate reader (ex. 337 nm/terbium em. 490 nm/FITC em. 520 nm) at ambient temperature. The degree of fluorescence resonance energy transfer (the HTRF value) is expressed as the ratio of the fluorescence emission intensities of the FITC and terbium fluorophores (Fern 520 nm/Fem 490 nm). The final concentrations of reagents in the binding assay are […] terbium chelate-labeled menin (location 2), 75 nM FITC-MBM1 peptide and 0.5% DMSO in assay buffer. Dose-response titrations of test compounds are conducted using an 11 point, three-fold serial dilution scheme, starting typically at 25 μM (location 1) or starting typically at 10 μM (location 2).
Compound potencies were determined by first calculating % inhibition at each compound concentration according to equation 1: % inhibition=((HC−LC)−(HTRF^compound−LC))/(HC−LC))*100 (Eqn 1)
Where LC and HC are the HTRF values of the assay in the presence or absence of a saturating concentration of a compound that competes with FITC-MBM1 for binding to menin, and HTRF^compound is the measured HTRF value in the presence of the test compound. FTC and LC HTRF values represent an average of at least 16 replicates per plate.
Where Bottom and Top are the lower and upper asymptotes of the dose-response curve, respectively, IC50 is the concentration of compound that yields 50% inhibition of signal and h is the Hill coefficient.
Preparation of Terbium cryptate labeling of Menin: Menin (a.a. 1-610-6×his tag (“6×his” disclosed as SEQ ID NO: 3)) was labeled with terbium cryptate as follows. 2 mg of Menin was buffer exchanged into 1× phosphate buffered saline. 16 uM Menin was incubated with 4-fold molar excess NHS-terbium cryptate (Cisbio Bioassays, Bedford, Mass.) for 2 hours at room temperature. The labeled protein was purified away from free label by running the reaction over a Superdex 200 Increase 10/300 GL column at 0.75 ml/min. Peak fractions were collected, aliquoted and frozen at −80° C.

Row | IC50 | SMILES
1 | 1250 nM | N#CCc1cccc(C(=O)NC2CC3(CCN(c4ncnc5sc(CC(F)(F)F)cc45)C3)C2)c1 (stereo not drawn) [Compound 8]
2 | 3810 nM | CC(C)(C#N)c1cccc(C(=O)NC2CC3(CCN(c4ncnc5sc(CC(F)(F)F)cc45)C3)C2)c1 (stereo not drawn) [Compound 9]
3 | 3840 nM | N#CCc1cccc(C(=O)NC2CCC3(C2)CN(c2ncnc4sc(CC(F)(F)F)cc24)C3)c1 (stereo not drawn) [Compound 18]
4 | 3630 nM | CC(C)(C#N)c1cccc(C(=O)NC2CCC3(C2)CN(c2ncnc4sc(CC(F)(F)F)cc24)C3)c1 (stereo not drawn) [Compound 19]
5 | 2020 nM | N#CCc1ccc(C(=O)NC2CCC3(C2)CN(c2ncnc4sc(CC(F)(F)F)cc24)C3)cc1 (stereo not drawn) [Compound 20]

Same assay, conditions: location 2; read-out: (2) location 2 Menin HTRF assay (IC50 (nM))

Row | SMILES | IC50
6 | CN1CCN(C(=O)c2ccc(NC3CC4(CCN(c5ncnc6sc(CC(F)(F)F)cc56)C4)C3)cc2)CC1 (single isomer, unassigned) [Compound 337] | 2300 nM
7 | CN1CCN(C(=O)c2ccc(NC3CC4(CCN(c5ncnc6sc(CC(F)(F)F)cc56)C4)C3)cc2)CC1 (single isomer, unassigned) [Compound 338] | 89.5 nM
8 | Nc1nc(N2CCC3(CC(Nc4ccc5[nH]c(=O)[nH]c5c4)C3)C2)c2cc(CC(F)(F)F)sc2n1 (single isomer, unassigned) [Compound 383] | 70.8 nM
9 | N#CCc1ccc(NC2CCC3(C2)CN(c2nc(N)nc4sc(CC(F)(F)F)cc24)C3)cc1 (single isomer, unassigned) [Compound 388] | 217 nM
10 | N#CCc1ccc(NC2CCC3(C2)CN(c2nc(N)nc4sc(CC(F)(F)F)cc24)C3)cc1 (single isomer, unassigned) [Compound 389] | 96 nM
11 | CNc1nc(N2CCC3(CC(Nc4ccc(CC#N)cc4)C3)C2)c2cc(CC(F)(F)F)sc2n1 (single isomer, unassigned) [Compound 391] | 163 nM
12 | CNc1nc(N2CCC3(CC(Nc4ccc(CC#N)cc4)C3)C2)c2cc(CC(F)(F)F)sc2n1 (single isomer, unassigned) [Compound 392] | 16.8 nM
13 | CNc1nc(N2CCC3(CC(Nc4ccc5[nH]c(=O)[nH]c5c4)C3)C2)c2cc(CC(F)(F)F)sc2n1 (single isomer, unassigned) [Compound 395] | 113 nM
14 | COC[C@@H]1CN(C(=O)c2ccc(NC3CC4(CCN(c5ncnc6sc(CC(F)(F)F)cc56)C4)C3)cc2)CCO1 (single isomer, unassigned) [Compound 409] | 1100 nM
15 | O=C(c1ccc(NC2CC3(CCN(c4ncnc5sc(CC(F)(F)F)cc45)C3)C2)cc1)N1CC2(COC2)C1 (single isomer, unassigned) [Compound 414] | 100 nM
16 | COc1nc(N2CC3(CC[C@@H](NCc4cccc(-c5cc[nH]n5)c4)C3)C2)c2cc(CC(F)(F)F)sc2n1 (stereo in doubt) [Compound 115] | 160 nM
17 | N#CCc1ccc(C(=O)NC2CCC3(C2)CN(c2ncnc4sc(CC(F)(F)F)cc24)C3)cc1 (stereo not drawn) [Compound 20] | 2790 nM
18 | O=C(NC1CCC2(C1)CN(c1ncnc3sc(CC(F)(F)F)cc13)C2)c1cccc(-c2cc[nH]n2)c1 (stereo not drawn) [Compound 30] | 3890 nM
19 | O=C1CN(C(=O)c2ccc(NC3CC4(CCN(c5ncnc6sc(CC(F)(F)F)cc56)C4)C3)cc2)CCN1 (stereo not drawn) [Compound 104] | 16.6 nM
20 | COc1nc(N2CC3(CCC(NCc4ccc5[nH]c(=O)[nH]c5c4)C3)C2)c2cc(CC(F)(F)F)sc2n1 (stereo not drawn) [Compound 117] | 111 nM
21 | CNC(=O)c1ccc(NC2CCC3(C2)CN(c2nc(NC)nc4sc(CC(F)(F)F)cc24)C3)cc1 (stereo not drawn) [Compound 123] | 137 nM
22 | Cc1nc(N2CCC3(CC(Nc4ccccc4)C3)C2)c2cc(CC(F)(F)F)sc2n1 (stereo not drawn) [Compound 264] | 913 nM
23 | CNc1nc(N2CC3(CCC(Nc4ccc(CC#N)cc4)C3)C2)c2cc(CC(F)(F)F)sc2n1 (stereo not drawn) [Compound 400] | 373 nM
24 | CNc1nc(N2CC3(CCC(Nc4ccc5oc(=O)[nH]c5c4)C3)C2)c2cc(CC(F)(F)F)sc2n1 (stereo not drawn) [Compound 401] | 331 nM
25 | CNc1nc(N2CC3(CCC(Nc4ccc5[nH]c(=O)[nH]c5c4)C3)C2)c2cc(CC(F)(F)F)sc2n1 (stereo not drawn) [Compound 402] | 906 nM

Next, values leading:

Row | IC50 | SMILES
26 | 330 nM | CC(=O)Nc1ccc(NC2CC3(CCN(c4ncnc5sc(CC(F)(F)F)cc45)C3)C2)cc1 (single isomer, unassigned) [Compound 332]
27 | 313 nM | FC(F)(F)Cc1cc2c(N3CC4(CC[C@@H](NC5(c6ccccc6)CC5)C4)C3)ncnc2s1 (stereo in doubt) [Compound 112]
28 | 164 nM | FC(F)(F)Cc1cc2c(N3CC4(CC[C@H](NC5(c6ccccc6)CC5)C4)C3)ncnc2s1 (stereo in doubt) [Compound 113]
29 | 23.7 nM | N#CCc1ccc(N[C@@H]2CC[C@]3(CCN(c4ncnc5sc(CC(F)(F)F)cc45)C3)C2)cc1 (stereo in doubt) [Compound 146]
30 | 1010 nM | N#CCc1cccc(C(=O)NC2CC3(CCN(c4ncnc5sc(CC(F)(F)F)cc45)C3)C2)c1 (stereo not drawn) [Compound 8]
31 | 1220 nM | CC(C)(C#N)c1cccc(C(=O)NC2CC3(CCN(c4ncnc5sc(CC(F)(F)F)cc45)C3)C2)c1 (stereo not drawn) [Compound 9]
32 | 1620 nM | N#CCc1cccc(C(=O)NC2CCC3(C2)CN(c2ncnc4sc(CC(F)(F)F)cc24)C3)c1 (stereo not drawn) [Compound 18]
33 | 3560 nM | CC(C)(C#N)c1cccc(C(=O)NC2CCC3(C2)CN(c2ncnc4sc(CC(F)(F)F)cc24)C3)c1 (stereo not drawn) [Compound 19]
34 | 419 nM | O=S(=O)(NC1CC2(CCN(c3ncnc4sc(CC(F)(F)F)cc34)C2)C1)c1ccccc1 (stereo not drawn) [Compound 24]
35 | 7520 nM | O=C(NC1CC2(CCN(c3ncnc4sc(CC(F)(F)F)cc34)C2)C1)c1ccccc1 (stereo not drawn) [Compound 36]
36 | 1440 nM | O=S(=O)(NC1CCC2(CCN(c3ncnc4sc(CC(F)(F)F)cc34)C2)C1)c1ccccc1 (stereo not drawn) [Compound 39]
37 | 1750 nM | Cn1cc(NC2CCC3(C2)CN(c2ncnc4sc(CC(F)(F)F)cc24)C3)cn1 (stereo not drawn) [Compound 43]
38 | 157 nM | N#CCc1cccc(NC2CCC3(C2)CN(c2ncnc4sc(CC(F)(F)F)cc24)C3)c1 (stereo not drawn) [Compound 114]
39 | 2530 nM | N#CCc1cccc(S(=O)(=O)NC2CCC3(CCN(c4ncnc5sc(CC(F)(F)F)cc45)C3)C2)c1 (stereo not drawn) [Compound 124]
40 | 5940 nM | N#CCc1ccc(S(=O)(=O)NC2CCC3(CCN(c4ncnc5sc(CC(F)(F)F)cc45)C3)C2)cc1 (stereo not drawn) [Compound 125]
41 | > 10000 nM | N#CCc1ccc(C(=O)NC2CCC3(CCN(c4ncnc5sc(CC(F)(F)F)cc45)C3)C2)cc1 (stereo not drawn) [Compound 126]
42 | > 10000 nM | N#CCc1cccc(C(=O)NC2CCC3(CCN(c4ncnc5sc(CC(F)(F)F)cc45)C3)C2)c1 (stereo not drawn) [Compound 127]
43 | > 10000 nM | O=C(NC1CCC2(CCN(c3ncnc4sc(CC(F)(F)F)cc34)C2)C1)c1ccccc1 (stereo not drawn) [Compound 128]
44 | 180 nM | N#Cc1cccc(NC2CCC3(CCN(c4ncnc5sc(CC(F)(F)F)cc45)C3)C2)c1 (stereo not drawn) [Compound 132]
45 | 425 nM | CC(C)(C#N)c1ccc(NC2CC3(CCN(c4ncnc5sc(CC(F)(F)F)cc45)C3)C2)cc1 (stereo not drawn) [Compound 169]
46 | 175 nM | N#CCc1cccc(NC2CC3(CCN(c4ncnc5sc(CC(F)(F)F)cc45)C3)C2)c1 (stereo not drawn) [Compound 201]
47 | 2160 nM | O=c1ccc(NC2CCC3(C2)CN(c2ncnc4sc(CC(F)(F)F)cc24)C3)c[nH]1 (stereo not drawn) [Compound 283]
48 | 423 nM | FC(F)(F)Cc1cc2c(N3CC4(CCC(Nc5ccc6cc[nH]c6c5)C4)C3)ncnc2s1 (stereo not drawn) [Compound 284]
